Consider 6 compounds from publication PMC11509005, “Synthesis, Cytotoxicity, and Mechanistic Evaluation of Tetrahydrocurcumin-Amino Acid Conjugates as LAT1-Targeting Anticancer Agents in C6 Glioma Cells” (International Journal of Molecular Sciences, 2024).

The subject of data set [1] is C6 glioma cells. Also noted: method as in PMID 18520037. The note with it: cited from earlier work.
Another data set deals with LAT1. On the set-up: method as in PMID 18520037. The note with it: BCH 3 mM, C6 glioma cells; cited from earlier work.
For data set [2], the system named is C6 glioma cells. Nature of the data set: MTT cell viability of BCH and of THC-di-Phe with or without LAT1 inhibitor BCH. The settings on record: 24 h. The format is cell-based. Here is the method: To investigate the role of THC-conjugated amino acid conjugates on LAT1, THC-amino acid conjugates were co-incubated with an inhibitor of LAT1 (BCH). The cells were seeded overnight at 2 × 10^4 cells/well in 96-well plates. Initially, the cells were treated with different concentrations of BCH (5, 10, and 20 mM) for 24 h, followed by the MTT assay to identify the maximum non-toxic concentration of BCH. Then, the cells were treated with THC-di-Phe at 12.5, 25, and 50 μM concentrations with or without 5 mM BCH for 24 h. The cell viability was measured by MTT assay.

The next data set concerns BJ fibroblast cells. In words: MTT cytotoxicity in normal BJ fibroblast cells. It is filed as cell-based. The settings on record: 24 h treatment. Here is the method: (§1) C6 glioma cells and BJ fibroblast cells (ATCC, Manassas, VA, USA) were used as models for brain cancer and normal cells, respectively. The cells were cultured in DMEM media (Sigma–Aldrich, St. Louis, MO, USA) supplemented with 10% fetal bovine serum (Merck Millipore, Burlington, MA, USA) and 1% penicillin-streptomycin (Caisson Labs, Smithfield, UT, USA). The cells were maintained in an incubator with 5% CO2 at 37 °C and 95% humidity.
(§2) Cell viability was assessed using the 3-(4,5-dimethylthiazol-2-yl)-2,5-diphenyltetrazolium bromide (MTT) assay (Sigma–Aldrich, St. Louis, MO, USA). Cells were seeded in 96-well plates at a density of 2 × 10^4 cells/well and incubated for 24 h. The cells were then treated with various concentrations of THC and equimolar concentrations of THC-amino acid conjugates (0, 31.25, 62.5, 125, 250, and 500 μM) for 24 and 48 h in cancer cells, and for 24 h in normal cells. After treatment, the media were removed and replaced with MTT solution (0.5 mg/mL), followed by incubation for 3 h. The resulting formazan crystals were dissolved in DMSO (Sigma–Aldrich, St. Louis, MO, USA). Absorbance was measured using a microplate reader at a wavelength of 570 nm (CLARIOstar®, BMG Labtech, Ortenberg, Germany).

In data set [3] the test system is C6 glioma cells. Nature of the data set: Cell scratch (wound closure, migration) assay. The note with it: 10 µM, % of wound closure compared to 0 h; for wound closure at 24 h: control 71.4%; for wound closure at 48 h: control 100%. The format is cell-based. As for the experimental part:
Properties of cell migration were assayed using a cell scratch assay. Briefly, the cells were seeded in 24-well plates at a concentration of 100,000 cells/well, followed by treatment of the cells using 10 µM THC and 10 µM THC-di-Phe. The cell layers were then scrapped with a 200 µL pipette tip to form a wound. The ability of the cells to close the wound was observed under an inverted microscope (Nikon TS2, Tokyo, Japan) at 0, 24, and 48 h post-treatment. Wound closure was further analyzed using ImageJ software (version 1.53e, Wayne Rasband and contributors, National Institutes of Health, USA).

Data set [4] deals with C6 glioma cells. Nature of the data set: Annexin V/PI double staining by flow cytometry. It is filed as cell-based. The settings on record: 20 μM, 24 h, mean ± S.D., n = 3. As for the experimental part:
Annexin V/PI staining by flow cytometry was performed to indicate the stage of cell fate, including necrosis, early and late apoptosis, and viable cells. Briefly, the cells were treated with the THC and THC-di-Phe at 20 µM. After 24 h, the cells were harvested and further analyzed by flow cytometry. Annexin V/PI staining by flow cytometry was performed according to the manufacturer’s instructions (BioLegend, San Diego, CA, USA).
Background: Flow cytometry measures light scatter and fluorescence of single cells or particles in a stream.

Another data set concerns P70S6K/S6 pathway. Nature of the data set: Western blot of P70S6K and S6 phosphorylation. The settings on record: 10 µM, C6 cells, 8, 16 and 24 h post-treatment. The format is cell-based. Here is the method:
C6 cells were seeded in a 6-well plate with a density of 1 × 10^6 cells for 24 h. The cells were treated with THC and THC-di-Phe for 8, 16, and 24 h. The cells were washed in ice-cold phosphate-buffered saline (PBS) and lysed with ice-cold lysis buffer containing protease and phosphatase inhibitors. The cells in the lysis buffer were centrifuged at 14,000 rpm at 4 °C for 10 min. The protein concentration in the supernatant was quantified using Pierce™ BCA protein assay. After the quantification, equal amounts of protein were resolved by SDS–PAGE and transferred into a nitrocellulose membrane. The membranes were then blocked with 5% dry milk and probed with primary antibody including p70S6K, p-p70S6K, S6, p-S6 (Cell Signaling Technology (Beverly, MA, USA), followed by adding the species-specific horseradish […] conjugated secondary antibody (Cell Signaling Technology (Beverly, MA, USA). The membrane was incubated with a chemiluminescent detection kit solution, followed by X-ray film imaging to visualize protein levels. The level of phosphorylation of each protein was normalized to its normal form.
(In general: A western blot detects proteins with antibodies after separation by electrophoresis.)

The test system of data set [5] is C6 glioma cells. Nature of the data set: MTT cytotoxicity in C6 glioma cells. The format is cell-based. Here is the method:
as §1, §2

In a further data set the test system is C6 cells. In words: Cell proliferation assay (MTT). The format is cell-based. The settings on record: 10 µM, 24 h and 48 h post-treatment. As for the experimental part:
The effects of THC-di-Phe on cell cancer proliferation were assessed using a cell proliferation assay. Briefly, C6 cells were seeded in a 96-well plate at a concentration of 5000 cells/well and then incubated overnight. Cells were then incubated with 10 µM THC and THC-di-Phe for 24 and 48 h. The morphology of the cells was observed under a light microscope. Then, the cells were incubated with MTT solution (0.5 mg/mL), and the formed formazan crystals were dissolved in DMSO. The absorbance was measured using a microplate reader (CLARIOstar®, BMG Labtech, Ortenberg, Germany) at the wavelength of 570 nm.

The test system of data set [6] is C6 glioma cells. In words: Hoechst 33342/PI double staining assay (apoptosis and necrosis). The note with it: 20 and 40 µM and higher concentrations. The format is cell-based. As for the experimental part: Apoptosis and necrosis were assessed using the Hoechst 33342/PI double staining assay (Sigma–Aldrich, St. Louis, MO, USA). After treatment, the cells were viewed using a fluorescence microscope (Olympus IX51 inverted microscope, Tokyo, Japan). Hoechst 33342 dye stains cells with blue color, either dead or alive. Apoptotic cells are indicated by condensed and fragmented chromatin. Propidium iodide (PI) stains cells in red, which can only stain damaged cells and is used as an indicator of cellular necrosis.

Data set [7] concerns C6 glioma cells. In words: MTT cytotoxicity in C6 glioma cells. The format is cell-based. The note with it: tested at 5 to 40 µM, Supplementary Figure S29.
The mark [8] stands for this setting: 24 h treatment, read-out: IC50 at 24 h, C6 cells.
Where [9] appears, read: 48 h treatment, read-out: IC50 at 48 h, C6 cells.

Where two headings read alike, the source gives them in different places.

As to `NC1(C(=O)O)CC2CCC1C2` (centres unmarked) [BCH, 2-Aminobicyclo-(2,2,1)-heptane-2-carboxylic acid], the “cytotoxicity at 3 mM” value with C6 glioma cells [1] (BCH 3 mM, 24 h incubation) is reported as “no significant cytotoxicity”. In the data set with C6 glioma cells [1] (BCH 10 mM), the “cytotoxicity at 10 mM” value was “significant toxicity”. For the same compound, in the data set on LAT1, the “inhibition of LAT1 activity” value is on record as “completely inhibit”. In the data set with C6 glioma cells [2] (C6 glioma cells, MTT), this compound registered a maximum non-toxic concentration of 5 mM.

Usually IC50 stands for the midpoint of a concentration-inhibition curve. As to `COc1cc(CCC(=O)CC(=O)CCc2ccc(O)c(OC)c2)ccc1O` [THC, Tetrahydrocurcumin], the IC50 in the data set with BJ fibroblast cells (Homo sapiens) stood at 184 ± 31.8 µM; with C6 glioma cells [5] (setting [8]), 111 µM; in the data set with C6 glioma cells [5] (setting [9]), 52.9 µM. Further, in the data set on C6 glioma cells [3], the “wound closure at 24 h” value is 46.3%. In addition, in the data set on C6 glioma cells [3], the “wound closure at 48 h” value came out at 81.4%. The compound also showed a necrotic cell death with C6 glioma cells [4] of 2.73 ± 0.15%. For the same compound, the “percentage of late apoptotic cells” value in the data set on C6 glioma cells [4] was determined as 2.33 ± 0.32%. Also, in the data set on P70S6K/S6 pathway, the “phosphorylation of P70S6K and S6 compared to control” value was “did not significantly modulate”. In addition, the “proliferation ability of C6 cells compared to the control” value in the data set on C6 cells was “significant reduction of cell proliferation by THC was only observed 48 h post-treatment”.

For “(Z)-2,2′-(((((3-Hydroxy-5-oxohept-3-ene-1,7-diyl)bis(2-methoxy-4,1 phenylene))bis(oxy))bis (carbonyl))bis(azanediyl))diacetic acid [THC-di-Gly]”, the 50% inhibitory concentration (IC50) in the data set with BJ fibroblast cells, with C6 glioma cells [5] (setting [8]) and in the data set with C6 glioma cells [5] (setting [9]) was over 500 µM each time.

As for “(Z)-2,2′-(((((3-Hydroxy-5-oxohept-3-ene-1,7-diyl)bis(2-methoxy-4,1-phenylene))bis(oxy))bis (carbonyl))bis(azanediyl))bis(3-methylpentanoic acid) [THC-di-Ile]”, the IC50 with BJ fibroblast cells, in the data set with C6 glioma cells [5] (setting [8]) and with C6 glioma cells [5] (setting [9]) was over 500 µM throughout.

As to “(Z)-2,2′-(((((3-Hydroxy-5-oxohept-3-ene-1,7-diyl)bis(2-methoxy-4,1-phenylene))bis(oxy))bis (carbonyl))bis(azanediyl))bis(3-phenylpropanoic acid) [THC-di-Phe]”, the “induction of cellular apoptosis (Hoechst 33342/PI)” value in the data set with C6 glioma cells [6] is reported as “observed”. The same compound came in with a concentration for half-maximal inhibition (IC50) with BJ fibroblast cells of 470 ± 20.4 µM. For the same compound, in the data set on C6 glioma cells [3], the “wound closure at 24 h” value is reported as 32.8% and the “wound closure at 48 h” value came out at 65.2%. In the data set on C6 glioma cells [4], the necrotic cell death came to 5.01 ± 0.64% and the “percentage of late apoptotic cells” value is 6.07 ± 1.13%. For the same compound, the “phosphorylation of P70S6K and S6 compared to control” value in the data set on P70S6K/S6 pathway is listed as “significantly inhibited”. Moreover, the “cell death on co-incubation with BCH vs THC-di-Phe alone, lower concentrations” value with C6 glioma cells [2] (THC-di-Phe 12.5 and 25 μM, 5 mM BCH) is recorded as “significantly increased cell death”. For the same compound, the “cell death with or without BCH, higher concentrations” value in the data set with C6 glioma cells [2] (THC-di-Phe 50 and 100 μM, 5 mM BCH) is “comparable cellular death”. Besides, the “concentrations toxic to C6 glioma cells” value in the data set with C6 glioma cells [7] was “above 10 µM”. In the data set on C6 glioma cells [5] (setting [8]), the IC50 came to 35.8 µM. For the same compound, the IC50 in the data set with C6 glioma cells [5] (setting [9]) came to 26.8 µM. For the same compound, the “proliferation ability of C6 cells compared to the control” value in the data set with C6 cells is on record as “significantly inhibited”.

As to “(Z)-2,2′-(((((3-Hydroxy-5-oxohept-3-ene-1,7-diyl)bis(2-methoxy-4,1-phenylene))bis(oxy))bis (carbonyl))bis(azanediyl))bis(4-methylpentanoic acid) [THC-di-Leu]”, the half-inhibitory concentration (IC50) with BJ fibroblast cells was over 500 µM; in the data set on C6 glioma cells [5] (setting [8]), 350 ± 52.6 µM; in the data set with C6 glioma cells [5] (setting [9]), 350 ± 129 µM.
